# Experimental data reported in patent publication US9700546B2, “Trivalent chromium compounds, compositions and methods of use” (INTERHEALTH NUTRACEUTICALS, INC., priority 2006, dated 2017).
# “Also recorded” adds a separate entry of the source.
# Tests used:
# [1] = system: Obese Zucker rats; experiment: In vivo assessment in obese Zucker rats: body weight and food intake; conditions: for Food Intake 5 wks / Food Intake 7 wks: obese Zucker rats, daily 400 μg Cr(III)/kg, mean; for Food Intake 5 wks: at 5 weeks; for Food Intake 7 wks: at 7 weeks
# [2] = system: Obese Zucker rats; experiment: In vivo assessment in obese Zucker rats: clinical chemistry (AP, BUN, CRT, AST, ALT)
# [3] = system: Obese Zucker rats; experiment: In vivo assessment in obese Zucker rats: blood lipid profile (total cholesterol, triglycerides, HDL); conditions: daily 400 μg Cr(III)/kg, 8 weeks, mean
# [4] = system: Obese Zucker rats; experiment: In vivo assessment in obese Zucker rats: other vascular inflammation markers (cAMP, TNFα, IL-6, OxyDNA); conditions: for OxyDNA: oxidative DNA damage
# [5] = system: Obese Zucker rats; experiment: In vivo assessment in obese Zucker rats: vascular inflammation markers (MCP-1, CRP, RBP-4, leptin, ICAM, adiponectin); conditions: for C-reactive protein, effect in words / adiponectin levels, effect in words / intracellular adhesion molecule, effect in words / monocyte chemotactic protein-1, effect in words / Leptin / RBP-4 / Adiponectin / CRP / ICAM / MCP-1: obese Zucker rats, 8 weeks; for C-reactive protein, effect in words / adiponectin levels, effect in words / intracellular adhesion molecule, effect in words / monocyte chemotactic protein-1, effect in words: effect of administration; for Leptin / RBP-4 / Adiponectin / CRP / ICAM / MCP-1: daily 400 μg Cr(III)/kg, mean; for Adiponectin / CRP / ICAM / MCP-1: plasma, ELISA
# [6] = system: Obese Zucker rats; experiment: In vivo assessment in obese Zucker rats: key biological parameters (fasting glucose, HbA1c, vitamin C, GSH, RBC lipid peroxidation); conditions: for RBC Lipid Peroxidase: malondialdehyde by thiobarbituric acid; for RBC Lipid Peroxidase / blood vitamin C levels, effect in words / fasting glucose, effect in words / glycosylated hemoglobin, effect in words / red blood cell lipid peroxidation, effect in words / Fasting Glucose / GSH / HbA1c / Vitamin C: obese Zucker rats, 8 weeks; for RBC Lipid Peroxidase / Fasting Glucose / GSH / HbA1c / Vitamin C: daily 400 μg Cr(III)/kg, mean; for blood vitamin C levels, effect in words / fasting glucose, effect in words / glycosylated hemoglobin, effect in words / red blood cell lipid peroxidation, effect in words: effect of administration; for Fasting Glucose: fasted overnight; for Vitamin C: plasma
# [7] = compared to chromium nicotinate-glycine-cysteine-glutamic acid GTF complex of Toepfer et al.
# [8] = obese Zucker rats, daily 400 μg Cr(III)/kg, 8 weeks, mean ± SE
# [9] = listed as Chromium dinicocysteinate
# [10] = listed as chromium dinicocysteinate
# [11] = over chromium nicotinate, chromium picolinate and chromium histidinate
substance,measurement,setting,value
Chromium Dinicocysteinate [Cr(nic)2Cys],"food intake vs GTF complex, in words",[1]; [7],reduced
same,"food intake, effect in words",[1]; effect of administration,reduction
same,Food Intake 5 wks,[1],34.43 g/day
same,Food Intake 7 wks,[1],38.62 g/day
same,"alkaline phosphatase activities, effect in words","[2]; Zucker diabetic fatty rats, supplemented group",reduces
same,"ALT vs GTF complex, in words",[2]; [7],decreased levels
same,"AST vs GTF complex, in words",[2]; [7],decreased levels
same,"blood creatinine, effect in words",[2]; effect of administration,reducing
same,ALT (Alanine Aminotransferease),"[2]; obese Zucker rats, mean ± SE",99.00 u/L
same,AP (Alkaline phosphatase),"[2]; obese Zucker rats, mean ± SE",35.15 u/L
same,Anion Gap,"[2]; obese Zucker rats, mean ± SE",29.62
same,BUN (Blood Urea Nitrogen),"[2]; obese Zucker rats, mean ± SE",18.23 mg/dL
same,CRT (Creatinine),"[2]; obese Zucker rats, mean ± SE",0.41 mg/dL
same,Total Bilirubin,"[2]; obese Zucker rats, mean ± SE",0.05 mg/dL
same,HDL,[3],66.46 mg/dL
same,Total Cholesterol,[3],188.46 mg/dL
same,Triglyceride,[3],550.89 mg/dL
same,"OxyDNA vs GTF complex, in words",[4]; [7],decreased levels
same,"TNFα vs GTF complex, in words",[4]; [7],decreased levels
same,IL-6,[4]; [8],95.02 ± 1.99 pg/mL
same,TNFα,[4]; [8],17.72 ± 3.35 pg/mL
same,cAMP,[4]; [8],33.26 ± 2.61 pmol/mL
same,"TNFα vs comparators, in words",[4]; over chromium picolinate and chromium histidinate,lowered levels
same,OxyDNA,[4]; [8],46.92 ± 2.24 ng/mL
same,"adiponectin vs GTF complex, in words",[5]; [7],increased levels
same,"C-reactive protein, effect in words",[5]; [9],reductions
same,"adiponectin levels, effect in words",[5]; [9],elevation
same,"intracellular adhesion molecule, effect in words",[5]; [9],reductions
same,"monocyte chemotactic protein-1, effect in words",[5]; [9],reductions
same,"C-reactive protein, effect in words",[5]; [10],reducing; also recorded: reductions
same,"adiponectin levels, effect in words",[5]; [10],increases
same,"intracellular adhesion molecule, effect in words",[5]; [10],reducing
same,"monocyte chemotactic protein-1, effect in words",[5]; [10],reducing; also recorded: reductions
same,Leptin,[5],407.32 pg/mL
same,RBP-4,[5],49670.13 ng/mL
same,"C-reactive protein vs comparators, in words",[5]; [11],decreased levels
same,"ICAM vs comparators, in words",[5]; [11],decreased levels
same,"adiponectin vs comparators, in words",[5]; [11],increased levels
same,"MCP-1 vs comparator, in words",[5]; over chromium picolinate,lower levels
same,Adiponectin,[5],12732.11 ng/mL
same,CRP,[5],569.96 ng/mL
same,ICAM,[5],17057.51 pg/mL
same,MCP-1,[5],2829.17 pg/mL
same,"fasting glucose vs GTF complex, in words",[6]; [7],decreased levels
same,"glycosylated hemoglobin vs GTF complex, in words",[6]; [7],decreased levels
same,"red blood cell lipid peroxidation vs GTF complex, in words",[6]; [7],decreased levels
same,"vitamin C vs GTF complex, in words",[6]; [7],increased levels
same,RBC Lipid Peroxidase,[6],1.81 nmol/mL
same,"blood vitamin C levels, effect in words",[6]; [9],elevation
same,"fasting glucose, effect in words",[6]; [9],reductions
same,"glycosylated hemoglobin, effect in words",[6]; [9],reductions
same,"red blood cell lipid peroxidation, effect in words",[6]; [9],reductions
same,"blood vitamin C levels, effect in words",[6]; [10],increased
same,"fasting glucose, effect in words",[6]; [10],reducing
same,"glycosylated hemoglobin, effect in words",[6]; [10],reducing
same,"red blood cell lipid peroxidation, effect in words",[6]; [10],reducing; also recorded: reduced
same,Fasting Glucose,[6],446.24 mg/dL
same,GSH,[6],4.74 µmol/g
same,HbA1c,[6],14.76%
same,"fasting glucose vs comparators, in words",[6]; [11],decreased levels
same,"glycosylated hemoglobin vs comparators, in words",[6]; [11],decreased levels
same,"vitamin C vs comparators, in words",[6]; [11],increased levels
same,"red blood cell lipid peroxidase vs comparator, in words",[6]; over chromium picolinate,lower levels
same,Vitamin C,[6],0.18 mg %
Chromium Dinicotiante Glutamate [Cr(nic)2Glu],Food Intake 5 wks,[1],37.51 g/day
same,Food Intake 7 wks,[1],39.92 g/day
same,BUN/CRT Ratio,"[2]; obese Zucker rats, mean ± SE",44.71
same,HDL,[3],65.57 mg/dL
same,Total Chol/HDL,[3],2.94 ratio
same,Total Cholesterol,[3],192.14 mg/dL
same,Triglyceride,[3],666.50 mg/dL
same,IL-6,[4]; [8],89.50 ± 3.22 pg/mL
same,cAMP,[4]; [8],29.97 ± 1.43 pmol/mL
same,OxyDNA,[4]; [8],43.62 ± 2.69 ng/mL
same,Leptin,[5],378.02 pg/mL
same,RBP-4,[5],46720.00 ng/mL
same,Adiponectin,[5],12446.67 ng/mL
same,CRP,[5],519.94 ng/mL
same,ICAM,[5],16980.59 pg/mL
same,MCP-1,[5],3197.58 pg/mL
same,RBC Lipid Peroxidase,[6],2.30 nmol/mL
same,Fasting Glucose,[6],490.43 mg/dL
same,GSH,[6],5.05 µmol/g
same,HbA1c,[6],14.69%
same,Vitamin C,[6],0.14 mg %
